Source: patent publication US12458647B2, “Macrocyclic derivative and use thereof” (Guangzhou Joyo Pharmatech Co., Ltd., priority 2022, dated 2025)

What was measured:
AsPC-1 cells = experiment: In vitro AsPC-1 cell proliferation experiment (10 days, 3D CellTiter-Glo); format: cell-based; conditions: 10 days culture
Method: RPMI1640 medium, penicillin/streptomycin antibiotics were purchased from Gibco, and fetal bovine serum was purchased from Hyclone. 3D CellTiter-Glo (cell viability chemiluminescent detection reagent) reagent was purchased from Promega. The AsPC-1 cell line was purchased from ATCC, Envision multilabel plate reader (PerkinElmer).
AsPC-1 cells were seeded in an ultra-low adsorption 96-well U-shaped plate, with 80 μL of cell suspension per well, containing 1,000 AsPC-1 cells. The plate was incubated overnight in a carbon dioxide incubator.
The test compound was diluted by 5-fold to 8 concentrations with a pipette, i.e., from 2 mM to 25.6 nM and replicate wells were set up for the experiment. 78 μL of culture medium was added to the intermediate plate, then 2 μL of the gradient diluted compound was transferred into each well of the intermediate plate according to the corresponding position. After mixing well, 20 μL of each well was transferred to the cell plate. […] Another cell plate was prepared, and the signal value was read as the maximum value (the maximum value in the following equation) on the day of dosing for data analysis.
100 μL of cell viability chemiluminescent detection reagent was added to the cell plate and incubated at room temperature for 30 minutes to stabilize the luminescence signal. A multilabel plate reader was used for reading. […]

[1] = tested on: human lung bronchial benign NCI—H727 cells; experiment: In vivo pharmacodynamic study, NCI-H727 subcutaneous xenograft tumor model in BALB/c nude mice; conditions: gavage once daily
Method: To study the in vivo efficacy of a compound of the present disclosure on human lung bronchial benign NCI—H727 cells in a subcutaneous xenograft tumor model in BALB/c nude mice.
Laboratory animals: Female BALB/c nude mice, 6-8 weeks old, weighing 18-22 g; supplier Beijing Vital River Laboratory Animal Technology Co., Ltd.
(§1) (1) Cell culture: Human lung bronchial benign tumor cells were cultured in vitro in a monolayer, and the culture conditions were 10% fetal bovine serum added to Gibco RMPI1640 medium, incubated at 37° C. in a 5% CO2 incubator. Routine passage was performed twice a week with trypsin-EDTA for digestion. When the cell saturation was 80%-90% and the required number was reached, the cells were collected, counted, and inoculated.
(2) Tumour cell inoculation and grouping: 0.2 mL (2×10^6) of NCI—H727 cells (Matrigel was added in a volume ratio of 1:1) were inoculated subcutaneously into the right back of each mouse, and dosing was initiated when the mean tumor volume reached approximately 134 mm^3, with 6 animals in each group.
The vehicle was 5% DMSO/10% solutol/85% water. Control group: The vehicle was administered twice daily by gavage at a dose of 10 μL/g; treatment group: After dissolving the test compound in the vehicle, the compound was administered by gavage once daily.
(§2) (3) The tumor diameter was measured with a vernier caliper twice weekly, and the tumor volume(V) was calculated. The formula is: V=0.5a×b^2, where a and b are the long and short diameters of the tumor, respectively. The tumor inhibitory efficacy of the test compound was evaluated by the tumor growth inhibition rate (TGI). The calculation formula is: TGI %=1−(Mean tumor volume at the end of dosing in a treatment group−Mean tumor volume at the start of dosing in this treatment group)/(Mean tumor volume at the end of treatment in the vehicle control group−Mean tumor volume at the start of treatment in the vehicle control group)×100%.

[2] = tested on: human pancreatic cancer PK59 cells; experiment: In vivo pharmacodynamic study, PK59 subcutaneous xenograft tumor model in BALB/c nude mice; conditions: gavage once daily
Method: To study the in vivo efficacy of a compound of the present disclosure in BALB/c nude mice subcutaneous xenograft tumor model of human pancreatic cancer PK59 cells.
Laboratory animals: Female BALB/c nude mice, 6-8 weeks old, weighing 18-22 g; supplier. Beijing Vital River Laboratory Animal Technology Co., Ltd.
as §1, with “culture.” for “culture:”, “pancreatic cancer PK59” for “lung bronchial benign tumor”
(2) Tumour cell inoculation and grouping: 0.2 mL (2×10^6) of PK59 cells (Matrigel was added in a volume ratio of 1:1) was subcutaneously inoculated into the right back of each mouse, and dosing was started when the mean tumor volume reached about 104.4 mm^3, with 6 animals in each group.
The vehicle was 5% DMSO/10% solutol/85% water. Control group: The vehicle was administered via gavage once daily at a dose of 10 μL/g; treatment group: After dissolving the test compound in the vehicle, the compound was administered by gavage once daily.
as §2, with “volume (V)” for “volume(V)”, “%=[1−(Mean” for “%=1−(Mean”

[3] = 25 mg/kg on Days 1-6 and 1 mg/kg on Days 7-21, Day 21

CCn1c(-c2cc(N3CCN(C)CC3)cnc2C(C)OC)c2c3cc(ccc31)-c1csc(n1)CC(NC(=O)C1C(C)C1C)C(=O)N1NC(C(=O)OCC(C)(C)C2)C2CC1C2 (single isomer, unassigned) [Compound 6A]
IC50 (AsPC-1 cells): 1 nM | Tumour Volume (mm^3) Day 1 ([1]; 5 mg/kg, Day 1): 134.6 mm^3 | Tumour Volume (mm^3) Day 7 ([1]; 5 mg/kg, Day 7): 86.5 mm^3 | Tumour Volume (mm^3) Day 14 ([1]; 5 mg/kg, Day 14): 78.5 mm^3 | TGI (%) ([1]; 5 mg/kg, Day 21): 104.4% | Tumour Volume (mm^3) Day 21 ([1]; 5 mg/kg, Day 21): 51.6 mm^3 | Tumour Volume (mm^3) Day 1 ([1]; 25 mg/kg on Days 1-6 and 1 mg/kg on Days 7-21, Day 1): 134.5 mm^3 | Tumour Volume (mm^3) Day 7 ([1]; 25 mg/kg on Days 1-6 and 1 mg/kg on Days 7-21, Day 7): 76.8 mm^3 | Tumour Volume (mm^3) Day 14 ([1]; 25 mg/kg on Days 1-6 and 1 mg/kg on Days 7-21, Day 14): 71.1 mm^3 | TGI (%) [1, 3]: 103.2% | Tumour Volume (mm^3) Day 21 [1, 3]: 75.1 mm^3 | Tumour Volume (mm^3) Day 1 ([2]; 0.5 mpk): 103.6 mm^3 | Tumour Volume (mm^3) Day 7 ([2]; 0.5 mpk): 111.0 mm^3 | Tumour Volume (mm^3) Day 14 ([2]; 0.5 mpk): 112.4 mm^3 | TGI (%) Day 22 ([2]; 0.5 mpk): 101% | Tumour Volume (mm^3) Day 22 ([2]; 0.5 mpk): 96.4 mm^3 | Tumour Volume (mm^3) Day 1 ([2]; 2 mpk): 103.5 mm^3 | Tumour Volume (mm^3) Day 7 ([2]; 2 mpk): 64.3 mm^3 | Tumour Volume (mm^3) Day 14 ([2]; 2 mpk): 45.5 mm^3 | TGI (%) Day 22 ([2]; 2 mpk): 107% | Tumour Volume (mm^3) Day 22 ([2]; 2 mpk): 43.3 mm^3 | Tumour Volume (mm^3) Day 1 ([2]; 5 mpk): 103.8 mm^3 | Tumour Volume (mm^3) Day 7 ([2]; 5 mpk): 65.0 mm^3 | Tumour Volume (mm^3) Day 14 ([2]; 5 mpk): 35.7 mm^3 | TGI (%) Day 22 ([2]; 5 mpk): 108% | Tumour Volume (mm^3) Day 22 ([2]; 5 mpk): 34.3 mm^3
